Results as given in ChEMBL document CHEMBL4346657, “Anticancer activity, dual prooxidant/antioxidant effect and apoptosis induction profile of new bichalcophene-5-carboxamidines” (Eur J Med Chem, 2019).

How the values were obtained:
SNB-75 = test: Antiproliferative activity against human SNB75 cells assessed as growth inhibition after 48 hrs by sulforhodamine B assay; type: functional; conditions: SNB-75, 48 h
OVCAR-8 = test: Antiproliferative activity against human OVCAR8 cells assessed as growth inhibition after 48 hrs by sulforhodamine B assay; type: functional; conditions: OVCAR-8, 48 h
SF-539 = test: Antiproliferative activity against human SF539 cells assessed as growth inhibition after 48 hrs by sulforhodamine B assay; type: functional; conditions: SF-539, 48 h
BT-549 = test: Antiproliferative activity against human BT549 cells assessed as growth inhibition after 48 hrs by sulforhodamine B assay; type: functional; conditions: BT-549, 48 h
Erythrocyte [1] = test: Haemolytic activity in human erythrocytes assessed as induction of hemolysis at 1.25 mM after 30 mins relative to H202; type: cell-based; conditions: erythrocyte, 0.5 h, 1250 µM
SR = test: Antiproliferative activity against human SR cells assessed as growth inhibition after 48 hrs by sulforhodamine B assay; type: functional
TK-10 = test: Antiproliferative activity against human TK10 cells assessed as growth inhibition after 48 hrs by sulforhodamine B assay; type: functional; conditions: TK-10, 48 h
HCC 2998 = test: Antiproliferative activity against human HCC2998 cells assessed as growth inhibition after 48 hrs by sulforhodamine B assay; type: functional; conditions: HCC 2998, 48 h
A549 = test: Antiproliferative activity against human A549/ATCC cells assessed as growth inhibition after 48 hrs by sulforhodamine B assay; type: functional; conditions: A549, 48 h
[2] = Antioxidant activity assessed as DPPH radical scavenging activity incubated in dark for 30 mins by spectrophotometric method relative to control; type: functional; parameters: concentration or dose not given beside the values
Erythrocyte [3] = test: Haemolytic activity in human erythrocytes assessed as induction of hemolysis at 0.625 mM after 30 mins relative to H202; type: cell-based; conditions: erythrocyte, 0.5 h, 625 µM
WI-38 = test: Cytotoxicity activity against human WI38 cells assessed as reduction in cell viability measured after 48 hrs by MTT assay; type: cell-based; conditions: WI-38, 48 h
RXF 393 = test: Antiproliferative activity against human RXF393 cells assessed as growth inhibition after 48 hrs by sulforhodamine B assay; type: functional; conditions: RXF 393, 48 h
U-251 = test: Antiproliferative activity against human U251 cells assessed as growth inhibition after 48 hrs by sulforhodamine B assay; type: functional; conditions: U-251, 48 h
NCI-H23 = test: Antiproliferative activity against human NCI-H23 cells assessed as growth inhibition after 48 hrs by sulforhodamine B assay; type: functional; conditions: NCI-H23, 48 h
LOX IMVI = test: Antiproliferative activity against human LOXIMVI cells assessed as growth inhibition after 48 hrs by sulforhodamine B assay; type: functional
HT-29 = test: Antiproliferative activity against human HT-29 cells assessed as growth inhibition after 48 hrs by sulforhodamine B assay; type: functional; conditions: HT-29, 48 h
HCT-15 = test: Antiproliferative activity against human HCT15 cells assessed as growth inhibition after 48 hrs by sulforhodamine B assay; type: functional; conditions: HCT-15, 48 h
[4] = Haemolytic activity in human erythrocytes assessed as induction of hemolysis at 2.5 mM after 30 mins relative to H202; type: cell-based, Erythrocyte; conditions: erythrocytes, read-out: Activity
OVCAR-4 = test: Antiproliferative activity against human OVCAR4 cells assessed as growth inhibition after 48 hrs by sulforhodamine B assay; type: functional; conditions: OVCAR-4, 48 h
K562 = test: Antiproliferative activity against human K562 cells assessed as growth inhibition after 48 hrs by sulforhodamine B assay; type: functional, cell-based; conditions: K562, 48 h, read-out: IC50
KM12 = test: Antiproliferative activity against human KM12 cells assessed as growth inhibition after 48 hrs by sulforhodamine B assay; type: functional; conditions: KM12, 48 h
MDA-MB-468 = test: Antiproliferative activity against human MDA-MB-468 cells assessed as growth inhibition after 48 hrs by sulforhodamine B assay; type: functional; conditions: MDA-MB-468, 48 h
Hs-578T = test: Antiproliferative activity against human Hs578T cells assessed as growth inhibition after 48 hrs by sulforhodamine B assay; type: functional
HCT-116 = test: Induction of apoptosis in human HCT116 cells assessed as increase in caspase 3 mRNA expression at 100 nM after 6 hrs hrs by SYBR green dye-based qRT-PCR analysis relative to control; type: functional
CAKI-1 = test: Antiproliferative activity against human CAKI-1 cells assessed as growth inhibition after 48 hrs by sulforhodamine B assay; type: functional; conditions: CAKI-1, 48 h
PC-3 = test: Antiproliferative activity against human PC3 cells assessed as growth inhibition after 48 hrs by sulforhodamine B assay; type: functional; conditions: PC-3, 48 h
NCI/ADR-RES = test: Antiproliferative activity against human NCI-ADR-RES cells assessed as growth inhibition after 48 hrs by sulforhodamine B assay; type: functional
MOLT-4 = test: Antiproliferative activity against human MOLT4 cells assessed as growth inhibition after 48 hrs by sulforhodamine B assay; type: functional; conditions: MOLT-4, 48 h
OVCAR-3 = test: Antiproliferative activity against human OVCAR3 cells assessed as growth inhibition after 48 hrs by sulforhodamine B assay; type: functional; conditions: OVCAR-3, 48 h
UO-31 = test: Antiproliferative activity against human UO31 cells assessed as growth inhibition after 48 hrs by sulforhodamine B assay; type: functional; conditions: UO-31, 48 h
[5] = Antioxidant activity assessed as DPPH radical scavenging activity incubated in dark for 30 mins by spectrophotometric method relative to ascorbic acid; type: functional
T47D = test: Antiproliferative activity against human T47D cells assessed as growth inhibition after 48 hrs by sulforhodamine B assay; type: functional
HOP-62 = test: Antiproliferative activity against human HOP62 cells assessed as growth inhibition after 48 hrs by sulforhodamine B assay; type: functional; conditions: HOP-62, 48 h
A498 = test: Antiproliferative activity against human A498 cells assessed as growth inhibition after 48 hrs by sulforhodamine B assay; type: functional; conditions: A498, 48 h
UACC-257 = test: Antiproliferative activity against human UACC257 cells assessed as growth inhibition after 48 hrs by sulforhodamine B assay; type: functional; conditions: UACC-257, 48 h
HOP-92 = test: Antiproliferative activity against human HOP92 cells assessed as growth inhibition after 48 hrs by sulforhodamine B assay; type: functional; conditions: HOP-92, 48 h

`COc1ccc(-c2ccc(-c3ccc(C(=N)N)o3)o2)cc1` showed a GI50 (SNB-75) of 1470 nM, a GI50 (OVCAR-8) of 3190 nM and a GI50 (SF-539) of 1890 nM. For the same molecule, the GI50 (BT-549) was 4550 nM, the Activity (Erythrocyte [1]) was “Non-Toxic” and the GI50 (SR) was 420 nM. For the same molecule, the GI50 (TK-10) was 7970 nM, the GI50 (HCC 2998) was 1580 nM and the GI50 (A549) was 1490 nM. For the same molecule, the inhibition [2] was 61.7%, the Activity (Erythrocyte [3]) was “Non-Toxic” and the IC50 (WI-38) was 72900 nM. It also gave a GI50 (RXF 393) of 2120 nM, a GI50 (U-251) of 1740 nM and a GI50 (NCI-H23) of 4340 nM. It also gave a GI50 (LOX IMVI) of 1480 nM, a GI50 (HT-29) of 480 nM and a GI50 (HCT-15) of 670 nM. For the same molecule, the hemolysis at 0.5 h, 2500 µM [4] was 8.1%, the GI50 (OVCAR-4) was 2220 nM and the IC50 (K562) was 490 nM. The GI50 (KM12) was 590 nM, the GI50 (MDA-MB-468) was 860 nM and the GI50 (Hs-578T) was 4330 nM. The “fold change (FC)” value (HCT-116) was 2.67, the GI50 (CAKI-1) was 1750 nM and the GI50 (PC-3) was 1880 nM. It also gave a GI50 (NCI/ADR-RES) of 1880 nM, a GI50 (MOLT-4) of 1200 nM and a GI50 (OVCAR-3) of 920 nM. For the same molecule, the GI50 (UO-31) was 1720 nM, the fold change (FC) [5] was 0.7 and the GI50 (T47D) was 1530 nM. The GI50 (HOP-62) was 1500 nM, the GI50 (A498) was 1760 nM and the GI50 (UACC-257) was 11100 nM.
Molecule `N=C(N)c1ccc(-c2ccc(-c3ccccc3)o2)o1` has a GI50 (SNB-75) of 1600 nM, a GI50 (OVCAR-8) of 4000 nM and a GI50 (SF-539) of 1950 nM. The GI50 (BT-549) was 4130 nM, the Activity (Erythrocyte [1]) was “Non-Toxic” and the GI50 (TK-10) was 3320 nM. It also gave a GI50 (HCC 2998) of 1610 nM, a GI50 (A549) of 3550 nM and an inhibition [2] of 30.9%. For the same molecule, the Activity (Erythrocyte [3]) was “Non-Toxic”, the IC50 (WI-38) was 68700 nM and the GI50 (HOP-92) was 1850 nM. It also gave a GI50 (RXF 393) of 2330 nM, a GI50 (U-251) of 2220 nM and a GI50 (NCI-H23) of 5780 nM. For the same molecule, the GI50 (LOX IMVI) was 1700 nM, the GI50 (HT-29) was 2110 nM and the GI50 (HCT-15) was 1160 nM. It also gave a hemolysis at 0.5 h, 2500 µM [4] of 7%, a GI50 (OVCAR-4) of 3480 nM and an IC50 (K562) of 660 nM. It also gave a GI50 (KM12) of 2610 nM, a GI50 (MDA-MB-468) of 1640 nM and a GI50 (Hs-578T) of 3810 nM. The “fold change (FC)” value (HCT-116) was 2.33, the GI50 (CAKI-1) was 3400 nM and the GI50 (PC-3) was 2640 nM. For the same molecule, the GI50 (NCI/ADR-RES) was 2820 nM, the GI50 (MOLT-4) was 3310 nM and the GI50 (OVCAR-3) was 3130 nM. The GI50 (UO-31) was 1540 nM, the fold change (FC) [5] was 0.3 and the GI50 (HOP-62) was 3590 nM. For the same molecule, the GI50 (A498) was 3030 nM and the GI50 (UACC-257) was 2520 nM.
For `N=C(N)c1ccc(-c2ccc(-c3ccc(F)cc3)s2)s1`, the GI50 (SNB-75) was 1480 nM, the GI50 (OVCAR-8) was 2230 nM and the GI50 (SF-539) was 1670 nM. For the same molecule, the GI50 (BT-549) was 1890 nM, the Activity (Erythrocyte [1]) was “Non-Toxic” and the GI50 (SR) was 1170 nM. For the same molecule, the GI50 (TK-10) was 1720 nM, the GI50 (HCC 2998) was 1730 nM and the GI50 (A549) was 1930 nM. The inhibition [2] was 44.8%, the Activity (Erythrocyte [3]) was “Non-Toxic” and the IC50 (WI-38) was 13300 nM. It also gave a GI50 (RXF 393) of 1750 nM, a GI50 (U-251) of 1800 nM and a GI50 (NCI-H23) of 1800 nM. The GI50 (LOX IMVI) was 1620 nM, the GI50 (HT-29) was 1530 nM and the GI50 (HCT-15) was 1340 nM. The hemolysis at 0.5 h, 2500 µM [4] was 14%, the GI50 (OVCAR-4) was 1680 nM and the IC50 (K562) was 1210 nM. It also gave a GI50 (KM12) of 1710 nM, a GI50 (MDA-MB-468) of 2040 nM and a GI50 (Hs-578T) of 2190 nM. For the same molecule, the “fold change (FC)” value (HCT-116) was 3.71, the GI50 (CAKI-1) was 1680 nM and the GI50 (PC-3) was 1770 nM. For the same molecule, the GI50 (NCI/ADR-RES) was 1790 nM, the GI50 (MOLT-4) was 1520 nM and the GI50 (OVCAR-3) was 1780 nM. For the same molecule, the GI50 (UO-31) was 1770 nM, the fold change (FC) [5] was 0.5 and the GI50 (T47D) was 1740 nM. The GI50 (HOP-62) was 1640 nM, the GI50 (A498) was 1950 nM and the GI50 (UACC-257) was 2190 nM.
With `N=C(N)c1ccc(-c2ccc(-c3ccc(F)cc3)o2)o1` the GI50 (SNB-75) was 1550 nM, the GI50 (OVCAR-8) was 1980 nM and the GI50 (SF-539) was 1630 nM. For the same molecule, the GI50 (BT-549) was 2270 nM, the Activity (Erythrocyte [1]) was “Non-Toxic” and the GI50 (TK-10) was 1550 nM. It also gave a GI50 (HCC 2998) of 1370 nM, a GI50 (A549) of 1650 nM and an inhibition [2] of 9.9%. The Activity (Erythrocyte [3]) was “Non-Toxic”, the IC50 (WI-38) was 10600 nM and the GI50 (HOP-92) was 1210 nM. For the same molecule, the GI50 (RXF 393) was 1600 nM, the GI50 (U-251) was 1600 nM and the GI50 (NCI-H23) was 1930 nM. For the same molecule, the GI50 (LOX IMVI) was 1550 nM, the GI50 (HT-29) was 610 nM and the GI50 (HCT-15) was 630 nM. It also gave a hemolysis at 0.5 h, 2500 µM [4] of 17.6%, a GI50 (OVCAR-4) of 1620 nM and an IC50 (K562) of 490 nM. For the same molecule, the GI50 (KM12) was 1440 nM, the GI50 (MDA-MB-468) was 1360 nM and the GI50 (Hs-578T) was 1950 nM. For the same molecule, the “fold change (FC)” value (HCT-116) was 3.88, the GI50 (CAKI-1) was 1710 nM and the GI50 (PC-3) was 1220 nM. For the same molecule, the GI50 (NCI/ADR-RES) was 1680 nM, the GI50 (MOLT-4) was 1600 nM and the GI50 (OVCAR-3) was 1840 nM. It also gave a GI50 (UO-31) of 1430 nM, a fold change (FC) [5] of 0.1 and a GI50 (HOP-62) of 1600 nM. The GI50 (A498) was 1900 nM and the GI50 (UACC-257) was 1980 nM.
